# Legend:
# [1] = system: RKO colon adenocarcinoma cells (RKOp27) arrested by the expression of ectopic p27Kip1; assay: Alamar Blue cell viability assay on RKOp27 cells arrested by Ponasterone A-induced p27Kip1 expression (cell cycle specific mode of action); format: cell-based; details: Homo sapiens, RKOp27 subclone induced with 10 μM Ponasterone A, 72 hours incubation, read-out: IC50 RKO p27 induced (arrested)
# Protocol: To determine the cell cycle specific mode of action, subclones of RKO colon adenocarcinoma cells (RKOp27 or RKOp21 as described by Schmidt et al. in Oncogene 19, 2423-2429; 2000) are seeded into 96 well flat bottom plates at a density of 16000 cells per well in a volume of 50 μl per well in DMEM growth medium with 10% FCS containing 10 μM Ponasterone A. 24 hours after seeding the 50 μl each of the compound dilutions in DMEM medium are added into each well of the 96 Well plate. Each compound dilution is tested as quadruplicates. Wells containing untreated control cells are filled with 50 μl DMEM medium containing 1% DMSO. The cells are then incubated with the substances for 72 hours at 37° C. in a humidified atmosphere containing 5% carbon dioxide. To determine the viability of the cells, 10 μl of an Alamar Blue solution (Biosource) are added and the fluorescence was measured at an extinction of 544 nm and an emission of 590 nm. For the calculation of the cell viability the emission value from untreated cells is set as 100% viability and the emission rates of treated cells are set in relation to the values of untreated cells. Viabilities are expressed as % values. Viability is compared of proliferating cells grown in the absence of the inducer Ponasterone A, versus viability of cells arrested by the expression of ectopic p27Kip1 induced by Ponasterone A.
# [2] = system: RKO (RKOp27) human colon adenocarcinoma cells; assay: Alamar Blue cell viability assay, anti-proliferative/cytotoxic activity on proliferating (uninduced) RKOp27 cells; format: cell-based; details: RKOp27 subclone without inducer, 72 hours incubation, read-out: IC50 RKO p27 uninduced (proliferating)
# Protocol: The anti-proliferative/cytotoxic activity of the compounds described herein, can be tested on subclones of RKO (RKOp27) human colon adenocarcinoma cells (Schmidt et al., Oncogene 19, 2423-2429; 2000) using the Alamar Blue cell viability assay (described in O'Brien et al. Eur J Biochem 267, 5421-5426, 2000). The compounds are dissolved as 20 mM solutions in dimethylsulfoxide (DMSO) and subsequently diluted in semi-logarithmic steps. DMSO dilutions are further diluted 1:100 into Dulbecco's modified Eagle's medium (DMEM) containing 10% fetal calf serum to a final concentration twice as much as the final concentration in the test. RKO subclones are seeded into 96 well flat bottom plates at a density of 4000 cells per well in a volume of 50 μl per well. 24 hours after seeding the 50 μl each of the compound dilutions in DMEM medium are added into each well of the 96 Well plate. Each compound dilution is tested as quadruplicates. Wells containing untreated control cells are filled with 50 μl DMEM medium containing 1% DMSO. The cells are then incubated with the substances for 72 hours at 37° C. in a humidified atmosphere containing 5% carbon dioxide. To determine the viability of the cells, 10 μl of an Alamar Blue solution (Biosource) are added and the fluorescence is measured at an extinction of 544 nm and an emission of 590 nm. For the calculation of the cell viability the emission value from untreated cells is set as 100% viability and the emission rates of treated cells are set in relation to the values of untreated cells. Viabilities are expressed as % values.
# The corresponding IC50 values of the compounds for anti-proliferative/cytotoxic activity are determined from the concentration-effect curves.
# Representative IC50 values for anti-proliferation/cytotoxicity determined in the mentioned assay follow from the following table A, in which the numbers of the compound correspond to the numbers of the examples.
Compound,IC50 [1],IC50 [2]
"N#Cc1c(NC(=O)CCc2ccccc2)sc2c1CCN(C(=O)OCC(O)CO)C2 (stereo not drawn) [Example 31, 3-Cyano-2-(3-phenyl-propanoylamino)-4,7-dihydro-5H-thieno[2,3-c]pyridine-6-carboxylic acid 2,3-dihydroxy-propyl ester]",> 100 µM,≤ 0.3 µM
"CCOC(=O)N1CCc2c(sc(NC(=O)CCc3cccc4c3OCO4)c2C#N)C1 [Example 32, 2-(3-Benzo[1,3]dioxol-4-yl-propanoylamino)-3-cyano-4,7-dihydro-5H-thieno[2,3-c]pyridine-6-carboxylic acid ethyl ester]",> 100 µM,≤ 0.3 µM
"CCOC(=O)N1CCc2c(sc(NC(=O)CCc3cccc4c3OC(F)(F)O4)c2C#N)C1 [Example 33, 3-Cyano-2-[3-(2,2-difluoro-benzo[1,3]dioxol-4-yl)-propanoylamino]-4,7-dihydro-5H-thieno[2,3-c]pyridine-6-carboxylic acid ethyl ester]",> 100 µM,0.3 to 2 µM
"CCOC(=O)N1CCc2c(sc(NC(=O)CCc3cccc4c3OCCO4)c2C#N)C1 [Example 34, 3-Cyano-2-(3-2,3-dihydro-benzo[1,4]dioxin-5-yl-propanoylamino)-4,7-dihydro-5H-thieno[2,3-c]pyridine-6-carboxylic acid ethyl ester]",> 100 µM,0.3 to 2 µM
"CCOC(=O)N1CCc2c(sc(NC(=O)CCc3ccccn3)c2C#N)C1 [Example 36, 3-Cyano-2-(3-pyridin-2-yl-propanoylamino)-4,7-dihydro-5H-thieno[2,3-c]pyridine-6-carboxylic acid ethyl ester]",> 100 µM,≤ 0.3 µM
"N#Cc1c(NC(=O)CCc2cccnc2)sc2c1CCN(C(=O)OCc1ccccn1)C2 [Example 38, 3-Cyano-2-(3-pyridin-3-yl-propanoylamino)-4,7-dihydro-5H-thieno[2,3-c]pyridine-6-carboxylic acid pyridin-2-ylmethyl ester]",> 100 µM,0.3 to 2 µM
"N#Cc1c(NC(=O)CCc2cccnc2)sc2c1CCN(C(=O)OCc1cccnc1)C2 [Example 39, 3-Cyano-2-(3-pyridin-3-yl-propanoylamino)-4,7-dihydro-5H-thieno[2,3-c]pyridine-6-carboxylic acid pyridin-3-ylmethyl ester]",> 100 µM,0.3 to 2 µM
"COCCOC(=O)N1CCc2c(sc(NC(=O)CCc3ccco3)c2C#N)C1 [Example 41, 3-Cyano-2-(3-furan-2-yl-propanoylamino)-4,7-dihydro-5H-thieno[2,3-c]pyridine-6-carboxylic acid 2-methoxy-ethyl ester]",> 100 µM,≤ 0.3 µM
"N#Cc1c(NC(=O)CCc2ccco2)sc2c1CCN(C(=O)OCc1ccccn1)C2 [Example 42, 3-Cyano-2-(3-furan-2-yl-propanoylamino)-4,7-dihydro-5H-thieno[2,3-c]pyridine-6-carboxylic acid pyridin-2-ylmethyl ester]",> 100 µM,≤ 0.3 µM
"N#Cc1c(NC(=O)CCc2ccco2)sc2c1CCN(C(=O)OCc1cccnc1)C2 [Example 43, 3-Cyano-2-(3-furan-2-yl-propanoylamino)-4,7-dihydro-5H-thieno[2,3-c]pyridine-6-carboxylic acid pyridin-3-ylmethyl ester]",> 100 µM,≤ 0.3 µM
"N#Cc1c(NC(=O)CCc2ccco2)sc2c1CCN(C(=O)OCc1ccncc1)C2 [Example 44, 3-Cyano-2-(3-furan-2-yl-propanoylamino)-4,7-dihydro-5H-thieno[2,3-c]pyridine-6-carboxylic acid pyridin-4-ylmethyl ester]",> 100 µM,≤ 0.3 µM
"N#Cc1c(NC(=O)CCc2ccco2)sc2c1CCN(C(=O)OCCc1ccccn1)C2 [Example 45, 3-Cyano-2-(3-furan-2-yl-propanoylamino)-4,7-dihydro-5H-thieno[2,3-c]pyridine-6-carboxylic acid 2-pyridin-2-yl-ethyl ester]",> 100 µM,≤ 0.3 µM
"N#Cc1c(NC(=O)CCc2cccnc2)sc2c1CCN(C(=O)OCCc1ccccn1)C2 [Example 46, 3-Cyano-2-(3-pyridin-3-yl-propanoylamino)-4,7-dihydro-5H-thieno[2,3-c]pyridine-6-carboxylic acid 2-pyridin-2-yl-ethyl ester]",> 100 µM,0.3 to 2 µM

# Second part, led by results:
IC50 [1],Compound,IC50 [2]
> 100 µM,"CC(C)(C)OC(=O)N1CCc2c(sc(NC(=O)CCc3ccccc3)c2C#N)C1 [Example 22, 3-Cyano-2-(3-phenyl-propanoylamino)-4,7-dihydro-5H-thieno[2,3-c]pyridine-6-carboxylic acid tert-butyl ester]",≤ 0.3 µM
> 100 µM,"CCOC(=O)N1CCc2c(sc(NC(=O)CCc3ccccc3Br)c2C#N)C1 [Example 23, 2-[3-(2-Bromo-phenyl)-propanoylamino]-3-cyano-4,7-dihydro-5H-thieno[2,3-c]pyridine-6-carboxylic acid ethyl ester]",≤ 0.3 µM
> 100 µM,"COCCOC(=O)N1CCc2c(sc(NC(=O)CCc3ccccc3)c2C#N)C1 [Example 24, 3-Cyano-2-(3-phenyl-propanoylamino)-4,7-dihydro-5H-thieno[2,3-c]pyridine-6-carboxylic acid 2-methoxy-ethyl ester]",≤ 0.3 µM
> 100 µM,"N#Cc1c(NC(=O)CCc2ccccc2)sc2c1CCN(C(=O)OCCc1ccccn1)C2 [Example 26, 3-Cyano-2-(3-phenyl-propanoylamino)-4,7-dihydro-5H-thieno[2,3-c]pyridine-6-carboxylic acid 2-pyridin-2-yl-ethyl ester]",≤ 0.3 µM
> 100 µM,"N#Cc1c(NC(=O)CCc2ccccc2)sc2c1CCN(C(=O)OCc1ccccn1)C2 [Example 27, 3-Cyano-2-(3-phenyl-propanoylamino)-4,7-dihydro-5H-thieno[2,3-c]pyridine-6-carboxylic acid pyridin-2-ylmethyl ester]",≤ 0.3 µM
> 100 µM,"N#Cc1c(NC(=O)CCc2ccccc2)sc2c1CCN(C(=O)OCc1cccnc1)C2 [Example 28, 3-Cyano-2-(3-phenyl-propanoylamino)-4,7-dihydro-5H-thieno[2,3-c]pyridine-6-carboxylic acid pyridin-3-ylmethyl ester]",≤ 0.3 µM
> 100 µM,"N#Cc1c(NC(=O)CCc2ccccc2)sc2c1CCN(C(=O)OCc1ccncc1)C2 [Example 29, 3-Cyano-2-(3-phenyl-propanoylamino)-4,7-dihydro-5H-thieno[2,3-c]pyridine-6-carboxylic acid pyridin-4-ylmethyl ester]",≤ 0.3 µM
> 100 µM,"CC1(C)OCC(COC(=O)N2CCc3c(sc(NC(=O)CCc4ccccc4)c3C#N)C2)O1 (stereo not drawn) [Example 30, 3-Cyano-2-(3-phenyl-propanoylamino)-4,7-dihydro-5H-thieno[2,3-c]pyridine-6-carboxylic acid 2,2-dimethyl-[1,3]dioxolan-4-ylmethyl ester]",≤ 0.3 µM
≥ 40 µM,"CCOC(=O)N1CCc2c(sc(NC(=O)CCc3cncnc3)c2C#N)C1 [Example 35, 3-Cyano-2-(3-pyrimidin-5-yl-propanoylamino)-4,7-dihydro-5H-thieno[2,3-c]pyridine-6-carboxylic acid ethyl ester]",0.3 to 2 µM
≥ 40 µM,"COCCOC(=O)N1CCc2c(sc(NC(=O)CCc3cccnc3)c2C#N)C1 [Example 37, 3-Cyano-2-(3-pyridin-3-yl-propanoylamino)-4,7-dihydro-5H-thieno[2,3-c]pyridine-6-carboxylic acid 2-methoxy-ethyl ester]",0.3 to 2 µM
≥ 40 µM,"N#Cc1c(NC(=O)CCc2cccnc2)sc2c1CCN(C(=O)OCc1ccncc1)C2 [Example 40, 3-Cyano-2-(3-pyridin-3-yl-propanoylamino)-4,7-dihydro-5H-thieno[2,3-c]pyridine-6-carboxylic acid pyridin-4-ylmethyl ester]",0.3 to 2 µM
